US8058507B2, “HOPM1 mediated disease resistance to Pseudomonas syringae in Arabidopsis” (priority 2007, dated 2011)

Key:
Assay in all cases: BFA treatment of bacteria-infiltrated detached leaves: bacterial multiplication and disease symptoms
Assay type in all cases: in vivo, Pseudomonas syringae
hrcC mutant = settings: Col-0 gl1 plants treated with water or BFA (36 μM)
Experimental: (§1) A standard enumeration procedure involves pathogen inoculation, using any one of described methods, supra, followed by assaying bacterial populations present within host tissues at regular intervals. The population present within the tissue was calculated based on the dilution factor divided by the amount of tissue present in each sample. Plotting log (culturable bacterial number/cm^2 leaf tissue) against time (usually in days) after pathogen inoculation produced an unfitted curve, i.e. growth curve. For a review of methods, see, Katagiri et al., in The Arabidopsis Book, Somerville, Meyerowitz, Eds. (American Society of Plant Biologists, Rockville, Md., 2002), website://dx.doi.org/10.1199/tab.0039; herein incorporated by reference.
(§2) Leaves were harvested and surface sterilized as follows: 1) whole leaves were removed from a host plant and gently mixed in a 70% ethanol solution for 1 minute. Leaves were blotted briefly on paper towels then rinsed in sterile distilled water for 1 minute, then blotted dry on paper towels. Leaf disks were excised from leaves with a 0.5 cm^2 or smaller cork borer, depending on the size of the sample leaves; 2) leaf disks from the leaves of 2 or more independent replicate plants were pooled for a single tissue sample and placed in a 1.5-mL microfuge tube with 100 μL sterile distilled water, the amount of leaf tissue per tube was recorded as leaf surface area. Three or more samples were harvested for each time point. Steps 1 and 2 were repeated for each sample; 3) Tissue samples were ground with a microfuge tube plastic pestle, by hand or by using a small hand-held electric drill. […] The number of serial dilutions necessary to get countable colonies were determined for each sample, however dilutions to 10^−7 were usually sufficient for any bacterial strain; 7) The samples were plated on the appropriate medium (e.g., Low salt Luria Bertani) supplemented with the necessary antibiotics to select for the specific inoculated bacterial strain. Plating was done in the traditional way (100 μL of a single sample was spread on a single plate) or several 10 μL aliquots of the 1:10 serial dilutions were spotted on to a single plate and allowed to dry onto the surface; and 8) Plates were placed at 30° C. for approximately 2 days with a cfu value determined for each dilution of each sample. […]
(§3) Leaves were infiltrated with 1×10^6 cfu/ml of bacteria, detached, and placed in microtiter wells with petioles immersed in the 36 μM BFA (Sigma Co.) solution. […] Bacterial populations and disease symptoms were determined on day 0 and day three.

Pst DC3000 = settings: Col-0 gl1 plants treated with water or BFA (36 μM)
Experimental: as §1, §2, §3

Pst DC3000 ΔCEL mutant = test system: Pst DC3000 ΔCEL mutant
Experimental: as §1, §2, §3

C[C@H]1CCC/C=C/[C@@H]2C[C@H](O)C[C@H]2[C@H](O)/C=C/C(=O)O1 [BFA, Brefeldin A]
multiplication or disease symptoms (hrcC mutant): no significant differences | multiplication or disease symptoms (Pst DC3000): no significant differences | virulence (both multiplication and disease symptoms) (Pst DC3000 ΔCEL mutant; 36 μM BFA, wild-type Col-0 gl1 plants, day three): significantly enhanced | restoration of the virulence of the ΔCEL mutant, compared with AtMIN7 KO plants (Pst DC3000 ΔCEL mutant; BFA-treated leaves): greater than that in the AtMIN7 KO plants
